What all share (experiment): NCI anticancer screen, dose series, 48 h
Assay [1] deals with HCC-2998 colon.
The test system of assay [2] is LOX IMVI melanoma.
In assay [3] the test system is CAKI-1 renal.
The test system of assay [4] is TK-10 renal.
The subject of assay [5] is COLO 205 colon.
In assay [6] the test system is UACC-257 melanoma.
Assay [7] has as its system CCRF-CEM leukemia.
The subject of assay [8] is MALME-3M melanoma.
Assay [9] concerns NCI-H226 lung.
Assay [10] concerns SR leukemia.

Several values for one entry are separate records, joined by “and”; a condition that tells them apart may be missing. Equal values may be shown once.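 How tested: cells in 96-well plates exposed to compound for 48 hours at five concentrations. GI50 is the concentration that inhibits growth by half. The concentration for full growth arrest is given as TGI.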

Here are results for 15 molecules from PubChem BioAssay (NCI).

`S=c1o[nH]c(-c2ccccc2)c1C=Nc1ccccc1`: the TGI in assay [1], in assay [2], in assay [3], in [4], in [5] and in assay [6] was over 100 µM throughout. Moreover, the TGI in assay [7] and in [8] was over 100 µM throughout.
Consider `Cc1ccc(S(=O)(=O)NC(=O)NCCc2ccccc2)cc1`, for which the TGI in [1], in assay [2], in [9], in assay [3], in assay [4] and in [5] was over 100 µM throughout. Also, the TGI in [6] was 88.2 µM; in [7] it was over 100 µM; in [8], over 100 µM.
Regarding `CCOC(=O)C1C=C2O[C@@H]3OC4(CCCCC4)O[C@@H]3C2C2C(=O)CCC(=O)[C@@]12C(=O)OC` (stereo partly drawn), the TGI in [1], in assay [2], in assay [9], in [3], in [5] and in [6] was over 100 µM in each case. Also, the TGI in assay [7] and in assay [8] was over 100 µM in each case.
`O=[P+](O)c1ccccn1`: the TGI in assay [1], in assay [2], in assay [9], in assay [3], in assay [4] and in assay [5] was over 100 µM in each case. Moreover, the TGI in assay [6], in [7] and in assay [8] was over 100 µM each time.
With `Nc1ccc(-c2cc(C(=O)Nc3nccs3)[nH]c(=S)n2)cc1`, the TGI in assay [2], in assay [9], in assay [3], in assay [4], in assay [5] and in assay [6] was over 100 µM in each case. Also, the TGI in assay [7] and in assay [8] was over 100 µM throughout.
On to `N#CC1=C(N)NC(=S)NC1c1ccc(-c2ccc(-c3nc4ccccc4o3)cc2)s1` (stereo not drawn), for which the GI50 was 9.58 µM in assay [2]; 10.1 µM in assay [3]; 18.6 µM in assay [4]; 11.3 µM in [5]; 11.2 µM in assay [6]. The TGI in assay [2] was 21.4 µM; in assay [3], 36.4 µM; in [4], over 50 µM; in assay [5], 33.4 µM; in assay [6], 26.8 µM.
For `C=CC(COC(=O)C(C)(C)OC(C)=O)c1ccc(OC(=O)C(C)C)c(OC)c1` (stereo not drawn), the TGI was 10.5 µM in assay [1]; over 33.3 µM in assay [2]; 49.9 µM in assay [9]; 4.07 µM in assay [3]; 24.8 µM in [4]; 7.05 µM in assay [5]. For the same molecule, the results for the TGI in assay [6], in assay [7] and in assay [8] were 31.5 µM, over 22 µM and 8.78 µM, respectively.
Take `CCCCC(C)/C=C/C(=O)C1=C(O)/C(=C/C(=O)O)OC1=O` (stereo not drawn): the TGI in assay [10], in assay [2], in assay [9], in assay [4], in assay [5] and in assay [6] was over 100 µM each time. Moreover, the TGI in [7] and in [8] was over 100 µM throughout.
Turning to `CC(C)(C)OP(=O)(OC(C)(C)C)C(O)c1ccc(/C=C(\C#N)C(N)=O)cc1` (stereo not drawn), the TGI in assay [1], in assay [2], in assay [9], in assay [3], in [4] and in [5] was over 100 µM each time. The TGI in assay [6], in [7] and in assay [8] was over 100 µM each time.
As to `Cn1c(=O)nc2n(-c3ccc(Cl)cc3)c(-c3ccccc3)c(-c3ccccc3)nc-2c1=O`, the TGI in assay [1] was over 100 µM; in [9], 58.8 µM; in assay [3], over 100 µM; in [4] it was over 100 µM; in assay [5] it was over 100 µM; in assay [6], 66.9 µM. Besides, the TGI in assay [7] was 77.1 µM; in [8] it was over 100 µM.
With `Cc1cccc(C)c1NC(=O)CCC/C(CC(=O)c1ccc(F)cc1)=N\NC(=O)C(=O)NN`, the TGI in assay [1], in [2], in [9], in [3], in assay [4] and in assay [5] was over 100 µM in each case. Further, the TGI in [6], in assay [7] and in [8] was over 100 µM each time.
As to `CC1(C)CCCC2(C)C3C(O)CC2(C)C(O)C31` (stereo not drawn), the TGI in [1], in assay [2], in assay [9], in assay [4], in assay [5] and in assay [6] was over 100 µM each time. Also, the TGI in [7] and in assay [8] was over 100 µM each time.
Regarding `Nc1ncnc2c1ncn2C1OC(COS(N)(=O)=O)C(O)C1O` (stereo not drawn), the GI50 in assay [10] was under 0.001 µM; in assay [2], 0.018 µM; in assay [9] it was 0.00203 µM; in [5], 0.00239 µM and 0.0219 µM. In addition, the TGI in assay [10] is 0.0136 µM; in assay [2], 0.0382 µM; in assay [9] it was 0.00398 µM; in assay [5], 0.00508 µM and 0.0432 µM; in [7] it was 0.173 µM.
As to `CN(C)CCC(/C=C/c1ccccc1)=N\Nc1ccc(Cl)c(Cl)c1`, the TGI in assay [10] amounted to 5.34 µM; in assay [2], 3.71 µM; in assay [3] it was 7.03 µM; in [4], 6.18 µM; in [5], 7.23 µM; in [6], 9.77 µM. The TGI in assay [7] came out at 10.1 µM; in [8], 32.8 µM.
Take `CCOC(=O)C(=O)Nc1cc(Cl)c(Cl)cc1Cl`: the TGI in assay [1], in assay [2], in assay [9], in assay [3], in [4] and in assay [5] was over 100 µM in each case. For the same molecule, the TGI in assay [6] and in [8] was over 100 µM throughout.
